Reference: ChEMBL document CHEMBL1201862, “PubChem BioAssay data set” (2004)
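1) Cells in 96-well plates. 2) Compound, 48 h, 5 concentrations. 3) Linear interpolation between surrounding doses. 4) Unreached endpoint = highest concentration. GI50 = concentration required for 50% inhibition of growth.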 Calls of active or inactive are those of the source. Rule as the data show it: active = GI50 up to about 1.1 µM and inactive = higher.

How the values were obtained:
Assay in all cases: growth of human tumour cells (NCI), 48 h
[1] = tested on: M19-MEL
[2] = tested on: 786-0
[3] = tested on: HL-60
[4] = tested on: HCT-15
[5] = tested on: RXF 631
[6] = tested on: M14
[7] = tested on: U-251
[8] = tested on: SW-620
[9] = tested on: OVCAR-5
[10] = tested on: LXFL 529
[11] = tested on: EKVX
[12] = tested on: UACC-257
[13] = tested on: OVCAR-8
[14] = tested on: SNB-78
[15] = tested on: TK-10
[16] = tested on: SF-539
[17] = tested on: NCI-H226
[18] = tested on: MOLT-4
[19] = tested on: OVCAR-3
[20] = tested on: RXF 393
[21] = tested on: SK-OV-3
[22] = tested on: HOP-18
[23] = tested on: SNB-75
[24] = tested on: ACHN
[25] = tested on: SK-MEL-2
[26] = tested on: COLO 205
[27] = tested on: RPMI-8226
[28] = tested on: UACC-62
[29] = tested on: NCI-H522
[30] = tested on: HCT-116
[31] = tested on: A498
[32] = tested on: K562
[33] = tested on: OVCAR-4
[34] = tested on: KM-20L2
[35] = tested on: HT-29
[36] = tested on: CCRF-CEM
[37] = tested on: DLD-1
[38] = tested on: A549
[39] = tested on: NCI-H23
[40] = tested on: HCC 2998
[41] = tested on: XF498
[42] = tested on: SN12C
[43] = tested on: SK-MEL-28
[44] = tested on: KM12
[45] = tested on: Malme-3M
[46] = tested on: HOP-62
[47] = tested on: UO-31
[48] = tested on: SNB-19
[49] = tested on: DMS-114
[50] = tested on: SF-268
[51] = tested on: NCI-H460
[52] = tested on: LOX IMVI
[53] = tested on: SF-295
[54] = tested on: HOP-92
[55] = tested on: IGROV-1
[56] = tested on: SK-MEL-5
[57] = tested on: DMS-273
[58] = tested on: CAKI-1
[59] = tested on: SR

**Q.** How did the GI50 [1] turn out when Cc1oc2c(C)c3oc(=O)cc(C)c3cc2c1CN was run?
**A.** 31 µM (inactive)

**Q.** What about the GI50 [2] of the same molecule?
**A.** 39.9 µM (inactive)

**Q.** And the GI50 [3]?
**A.** 39 µM (inactive)

**Q.** What about the GI50 [4] of the same molecule?
**A.** 36.9 µM

**Q.** What about the GI50 [5] of the same molecule?
**A.** 29.1 µM (inactive)

**Q.** And the GI50 [6]?
**A.** 38.5 µM (inactive)

**Q.** And the GI50 [7]?
**A.** 23 µM (inactive)

**Q.** And the GI50 [8]?
**A.** 19.5 µM (inactive)

**Q.** What about the GI50 [9] of the same molecule?
**A.** 42.1 µM (inactive)

**Q.** And the GI50 [10]?
**A.** 37.5 µM (inactive)

**Q.** What about the GI50 [11] of the same molecule?
**A.** 42.6 µM (inactive)

**Q.** What about the GI50 [12] of the same molecule?
**A.** 41.3 µM (inactive)

**Q.** And the GI50 [13]?
**A.** 40.6 µM (inactive)

**Q.** What about the GI50 [14] of the same molecule?
**A.** 53.5 µM (inactive)

**Q.** And the GI50 [15]?
**A.** 27.8 µM (inactive)

**Q.** What about the GI50 [16] of the same molecule?
**A.** 40.9 µM (inactive)

**Q.** And the GI50 [17]?
**A.** 34.4 µM (inactive)

**Q.** And the GI50 [18]?
**A.** 24.7 µM (inactive)

**Q.** And the GI50 [19]?
**A.** 61.4 µM (inactive)

**Q.** What about the GI50 [20] of the same molecule?
**A.** 15.9 µM (inactive)

**Q.** What about the GI50 [21] of the same molecule?
**A.** 23.7 µM (inactive)

**Q.** And the GI50 [22]?
**A.** > 100 µM (inactive)

**Q.** What about the GI50 [23] of the same molecule?
**A.** 33.9 µM (inactive)

**Q.** And the GI50 [24]?
**A.** 27.7 µM (inactive)

**Q.** And the GI50 [25]?
**A.** 46.1 µM (inactive)

**Q.** And the GI50 [26]?
**A.** 33.1 µM (inactive)

**Q.** What about the GI50 [27] of the same molecule?
**A.** 39.4 µM (inactive)

**Q.** And the GI50 [28]?
**A.** 92.3 µM (inactive)

**Q.** What about the GI50 [29] of the same molecule?
**A.** 42.4 µM (inactive)

**Q.** What about the GI50 [30] of the same molecule?
**A.** 22.8 µM (inactive)

**Q.** What about the GI50 [31] of the same molecule?
**A.** 41.5 µM (inactive)

**Q.** What about the GI50 [32] of the same molecule?
**A.** 37.6 µM (inactive)

**Q.** What about the GI50 [33] of the same molecule?
**A.** 40.6 µM (inactive)

**Q.** And the GI50 [34]?
**A.** 34.4 µM (inactive)

**Q.** What about the GI50 [35] of the same molecule?
**A.** 31.9 µM (inactive)

**Q.** And the GI50 [36]?
**A.** 41.9 µM (inactive)

**Q.** And the GI50 [37]?
**A.** 43.3 µM (inactive)

**Q.** And the GI50 [38]?
**A.** 40.3 µM (inactive)

**Q.** What about the GI50 [39] of the same molecule?
**A.** 45.8 µM (inactive)

**Q.** What about the GI50 [40] of the same molecule?
**A.** 28.1 µM (inactive)

**Q.** And the GI50 [41]?
**A.** 20.7 µM (inactive)

**Q.** And the GI50 [42]?
**A.** 42.5 µM (inactive)

**Q.** And the GI50 [43]?
**A.** 71 µM (inactive)

**Q.** And the GI50 [44]?
**A.** 49.5 µM (inactive)

**Q.** And the GI50 [45]?
**A.** 25.2 µM (inactive)

**Q.** What about the GI50 [46] of the same molecule?
**A.** 38.8 µM (inactive)

**Q.** And the GI50 [47]?
**A.** 30.1 µM (inactive)

**Q.** And the GI50 [48]?
**A.** 41.5 µM (inactive)

**Q.** What about the GI50 [49] of the same molecule?
**A.** 41.2 µM (inactive)

**Q.** What about the GI50 [50] of the same molecule?
**A.** 31 µM (inactive)

**Q.** And the GI50 [51]?
**A.** 27.9 µM (inactive)

**Q.** And the GI50 [52]?
**A.** 16.2 µM (inactive)

**Q.** What about the GI50 [53] of the same molecule?
**A.** 38 µM (inactive)

**Q.** Which GI50 [54] does the source give for COc1ccc(NC(=O)/C(=C/c2ccc(N(CCC#N)CCC#N)cc2)NC(=O)c2cc([N+](=O)[O-])ccc2Cl)cc1 here?
**A.** > 100 µM (inactive)

**Q.** What about the GI50 [1] of the same molecule?
**A.** 56.4 µM (inactive)

**Q.** And the GI50 [55]?
**A.** 65.9 µM (inactive)

**Q.** And the GI50 [4]?
**A.** 4.62 µM

**Q.** And the GI50 [5]?
**A.** 99.5 µM (inactive)

**Q.** And the GI50 [6]?
**A.** > 100 µM (inactive)

**Q.** And the GI50 [56]?
**A.** > 100 µM (inactive)

**Q.** And the GI50 [7]?
**A.** > 100 µM (inactive)

**Q.** And the GI50 [8]?
**A.** 98.6 µM (inactive)

**Q.** What about the GI50 [9] of the same molecule?
**A.** > 100 µM (inactive)

**Q.** What about the GI50 [10] of the same molecule?
**A.** 8.89 µM (inactive)

**Q.** And the GI50 [11]?
**A.** 52.1 µM (inactive)

**Q.** What about the GI50 [13] of the same molecule?
**A.** 38.9 µM (inactive)

**Q.** And the GI50 [57]?
**A.** 34.4 µM (inactive)

**Q.** What about the GI50 [14] of the same molecule?
**A.** > 100 µM (inactive)

**Q.** And the GI50 [15]?
**A.** 66.1 µM (inactive)

**Q.** And the GI50 [16]?
**A.** 18.9 µM (inactive)

**Q.** What about the GI50 [17] of the same molecule?
**A.** > 100 µM (inactive)

**Q.** What about the GI50 [18] of the same molecule?
**A.** 83.8 µM (inactive)

**Q.** What about the GI50 [19] of the same molecule?
**A.** 94.4 µM (inactive)

**Q.** What about the GI50 [20] of the same molecule?
**A.** > 100 µM (inactive)

**Q.** What about the GI50 [21] of the same molecule?
**A.** > 100 µM (inactive)

**Q.** What about the GI50 [22] of the same molecule?
**A.** > 100 µM (inactive)

**Q.** And the GI50 [24]?
**A.** 10.1 µM (inactive)

**Q.** And the GI50 [25]?
**A.** 56.1 µM (inactive)

**Q.** And the GI50 [26]?
**A.** 59.8 µM (inactive)

**Q.** And the GI50 [27]?
**A.** > 100 µM (inactive)

**Q.** What about the GI50 [28] of the same molecule?
**A.** 13.3 µM (inactive)

**Q.** What about the GI50 [29] of the same molecule?
**A.** 4.27 µM (inactive)

**Q.** What about the GI50 [30] of the same molecule?
**A.** 48.2 µM (inactive)

**Q.** And the GI50 [32]?
**A.** 6.76 µM (inactive)

**Q.** And the GI50 [33]?
**A.** > 100 µM (inactive)

**Q.** What about the GI50 [34] of the same molecule?
**A.** 36.2 µM (inactive)

**Q.** What about the GI50 [36] of the same molecule?
**A.** 71.6 µM (inactive)

**Q.** What about the GI50 [37] of the same molecule?
**A.** 15.3 µM (inactive)

**Q.** And the GI50 [38]?
**A.** 15.5 µM (inactive)

**Q.** And the GI50 [39]?
**A.** > 100 µM (inactive)

**Q.** And the GI50 [40]?
**A.** 45.8 µM (inactive)

**Q.** What about the GI50 [41] of the same molecule?
**A.** > 100 µM (inactive)

**Q.** And the GI50 [42]?
**A.** > 100 µM (inactive)

**Q.** What about the GI50 [43] of the same molecule?
**A.** 53.5 µM (inactive)

**Q.** What about the GI50 [44] of the same molecule?
**A.** 68.2 µM (inactive)

**Q.** And the GI50 [45]?
**A.** > 100 µM (inactive)

**Q.** And the GI50 [46]?
**A.** 33.2 µM (inactive)

**Q.** What about the GI50 [47] of the same molecule?
**A.** 9.91 µM (inactive)

**Q.** And the GI50 [48]?
**A.** > 100 µM (inactive)

**Q.** What about the GI50 [58] of the same molecule?
**A.** 26.2 µM (inactive)

**Q.** And the GI50 [59]?
**A.** 74.1 µM (inactive)

**Q.** What about the GI50 [50] of the same molecule?
**A.** 27.2 µM (inactive)

**Q.** What about the GI50 [52] of the same molecule?
**A.** 18.4 µM (inactive)

**Q.** What about the GI50 [53] of the same molecule?
**A.** 19.6 µM (inactive)
